Results on eight compounds are retold here after patent US5318980A, “Sulphonylbenzyl-substituted imidazoles” (Bayer Aktiengesellschaft, priority 1992, dated 1994).

The first assay concerns isolated aortic rings of rabbits, contraction induced by AII. Briefly: Inhibition of angiotensin II-induced contraction on isolated aortic rings of rabbits in vitro. The assay is classed as cell-based, rabbit. The conditions noted are these: Oryctolagus cuniculus, 3rd=submaximum agonist concentration, read-out: IC50 against contractions induced by AII. How it is done:
Rabbits of both sexes are stunned by a blow to the neck and exsanguinated or, where appropriate, anaesthetised with Nembutal (about 60-80 mg/kg i.v.) and sacrificed by opening the thorax. The thoracic aorta is removed, freed from attached connective tissue and divided into ring segments 1.5 mm wide, and the segments are introduced individually, under an initial load of about 3.5 g, into 10 ml organ baths containing carbogen-gassed KrebsHenseleit nutrient solution thermostatically controlled at 37° C. and having the following composition: 119 mmol/l of NaCl; 2.5 mmol/l of CaCl2 ×2 H2 O; 1.2 mmol/l to KH2 PO4; 10 mmol/l of glucose; 4.8 mmol/l of KCl; 1.4 mmol/l of MgSO4 ×7 H2 O and 25 mmol/l of NaHCO3.
The contractions are recorded isometrically by Statham UC2 cells via a bridge amplifier (ifd Mulheim or DSM Aalen), and are digitalised and evaluated by means of an A/D converter (system 570, Keithley Munich). The agonist dose/effect curves (DEC) are plotted hourly. For each DEC, 3 or 4 individual concentrations are applied to the baths at intervals of 4 minutes. The DEC and subsequent wash-out cycles (16 times for about 5 sec/min each with the above nutrient solution) are followed by a 28-minute resting or incubation phase, within which the contractions as a rule reach the starting value again.
The level of the 3rd DEC in the normal case is used as a reference parameter for evaluating the test substance which is to be investigated in subsequent passes and, for the subsequent DECs, is applied to the baths at the start of the incubation time in a dosage which increases each time. Each aortic ring is stimulated with always the same agonist over the entire day.
Agonists and their standard concentrations (application
The effect in each case at the 3rd=submaximum agonist concentration is taken as a basis for calculation of the IC50 (concentration at which the substance to be investigated causes 50% inhibition).
`CCCCc1nc(Cl)c(C(=O)O)n1Cc1ccc(S(=O)(=O)N2CCC[C@H]2C(=O)O)cc1` [Example 15]: the half-maximal inhibitory concentration (IC50) turned out to be 202 nM.

With `CCCCc1nc(Cl)c(C(=O)O)n1Cc1ccc(S(=O)(=O)N2CCCCC2C(=O)O)cc1Cl` (stereo not drawn) [Example 16], the IC50 turned out to be 309 nM.

Consider `CCCCc1nc(Cl)c(CO)n1Cc1ccc(S(=O)(=O)N2CCC[C@H]2C(=O)O)cc1Cl` [Example 19], for which the IC50 came out at 44 nM.

For the compound `CCCCc1nc(Cl)c(CO)n1Cc1ccc(S(=O)(=O)N2CCC[C@H]2C(=O)O)cc1` [Example 21], the IC50 came to 250 nM.

With `CCCCc1nc(Cl)c(C(=O)O)n1Cc1ccc(S(=O)(=O)N2CCCCC2C(=O)O)cc1` (stereo not drawn) [Example 25], the IC50 was 5 nM.

For another assay, the target named is T1, Angiotensin II receptor (Bos taurus, UniProt P25104).
T1 construct: carried out on partly purified membrane fractions of bovine AC with radioactive angiotensin II; from tissue; host or cells: bovine adrenal cortex, freed from medulla, partly purified membrane fractions
T1 sequence (P25104 1-359): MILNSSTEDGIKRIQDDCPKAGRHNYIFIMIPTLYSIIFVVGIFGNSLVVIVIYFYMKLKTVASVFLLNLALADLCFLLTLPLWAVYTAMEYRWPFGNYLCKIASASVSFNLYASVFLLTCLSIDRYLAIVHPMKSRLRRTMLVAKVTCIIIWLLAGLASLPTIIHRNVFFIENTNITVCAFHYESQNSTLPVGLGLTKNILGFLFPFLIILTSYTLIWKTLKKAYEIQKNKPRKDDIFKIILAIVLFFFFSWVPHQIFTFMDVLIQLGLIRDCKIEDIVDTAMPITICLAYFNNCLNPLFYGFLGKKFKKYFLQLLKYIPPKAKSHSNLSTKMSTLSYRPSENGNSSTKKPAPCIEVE
Briefly: Interaction with the angiotensin II receptor on membrane fractions of the adrenal cortex (cattle), 3H-angiotensin II bonding. The assay is classed as binding. The conditions noted are these: bovine adrenal cortex membranes; 3H-angiotensin II (3-5 nM); 60 minutes at room temperature. How it is done:
Adrenal cortices from cattle (AC), which are freshly removed and carefully freed from medulla from the capsule, are comminuted to a coarse membrane homogenate in sucrose solution (0.32M) with the aid of an Ultra-Turrax (Janke & Kunkel, Staufen i.B.), and the homogenate is partly purified to membrane fractions in two centrifugation steps.
The investigations on receptor bonding are carried out on partly purified membrane fractions of bovine AC with radioactive angiotensin II in an assay volume of 0.25 ml, which specifically contains the partly purified membranes (50-80 μg), ^3 H-angiotensin II (3-5 nM), test buffer solution (50 mM Tris, pH 7.2), 5 mM MgCl2 and the substances to be investigated. After an incubation time of 60 minutes at room temperature, the non-bonded radioactivity of the samples is separated off by means of moistened glass fibre filters (Whatman GF/C), and, after the protein has been washed with ice-cold buffer solution (50 mM Tris/HCl, pH 7.4, 5% PEG 6000), the radioactivity bonded is measured […] in a scintillation cocktail. The raw data were analysed with computer programs to give Ki and IC50 values (Ki : IC50 values corrected for the radioactivity used; IC50 values: concentration at which the substance to be investigated causes 50% inhibition of specific bonding of the radioligand).
In turn, `CCCCc1nc(Cl)c(C(=O)O)n1Cc1ccc(S(=O)(=O)N2CCC[C@H]2C(=O)O)cc1` [Example 15] displayed an inhibitory constant (Ki) of 400 nM.

Consider `CCCCc1nc(Cl)c(C(=O)O)n1Cc1ccc(S(=O)(=O)N2CCCCC2C(=O)OC(C)(C)C)cc1Cl` (stereo not drawn) [Example 18], for which the affinity corresponds to a Ki of 200 nM.

In a further assay the test system is smooth muscle cells. Briefly: Inhibition of the proliferation of smooth muscle cells (3H-thymidine incorporation). It is filed as cell-based, rats or pigs. The following applies: at 10^-6 M (so in the source); growth stimulated with AII, serum or other factors. How it is done: Smooth muscle cells which are obtained from the aortas of rats or pigs by the media explantate technique are used to determine the antiproliferative action of the compounds [R. Ross, J. Cell. Biol. 50, 172, 1971]. The cells are sown in suitable culture dishes, as a rule 24-hole plates, and cultured for 2-3 days in medium 199 containing 7.5% of FCS and 7.5% of NCS, 2 mM of L-glutamine and 15 mM of HEPES, pH 7.4, in 5% CO2 at 37° C. Thereafter, the cells are synchronised by serum withdrawal for 2-3 days and then stimulated to growth with AII, serum or other factors. Test compounds are added at the same time. After 16-20 hours, 1 μCi of ^3 H-thymidine is added, and after a further 4 hours, the incorporation of this substance into the TCA-precipitatable DNA of the cells is determined.
Turning to `CCCCc1nc(Cl)c(CO)n1Cc1ccc(S(=O)(=O)N2CCCCC2)cc1` [Example 11], the “% inhibition at 10^6 M” value stood at 20%.

Take `CCCCc1nc(Cl)c(CO)n1Cc1ccc(S(=O)(=O)N2CCC[C@H]2C(=O)OC(C)(C)C)cc1Cl` [Example 12]: the “% inhibition at 10^6 M” value was determined as 70%.
